Reference: PubChem BioAssay AID1963858 (Molecular Pharmacology Branch, DTP, NCI, 2024)

System: HOP-62 multicell spheroids with HUVEC/MSC, viability
Experiment: Anticancer human tumor HOP-62 cell line growth inhibition [KRAS2];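 note: viability read after a week of compound exposure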;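 for viability, T/C: 100% = DMSO vehicle-treated spheroids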
Details: for IC50: curve of first compound; for viability, T/C: stronger effect = lower value; active = viability on the fitted dose curve at most 10% of control; inactive = the rest
Summary of the method: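 KRAS-mutant tumor cells were grown as spheroids with HUVEC endothelial cells and human MSCs as stroma. Targeted agents were tested alone and with KRAS pathway inhibitors. Doses started at or near clinical Cmax, or 10 microM, descending half-log.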

[1] = second compound 0.1 µM, first compound 0.000316 µM
[2] = second compound 0.1 µM, first compound 0.001 µM
[3] = second compound 0.1 µM, first compound 0.00316 µM
[4] = second compound 0.1 µM, first compound 0.01 µM
[5] = second compound 0.1 µM, first compound 0.0316 µM
[6] = second compound 0.316 µM, first compound 0.000316 µM
[7] = second compound 0.316 µM, first compound 0.001 µM
[8] = second compound 0.316 µM, first compound 0.00316 µM
[9] = second compound 0.316 µM, first compound 0.01 µM
[10] = second compound 0.316 µM, first compound 0.0316 µM
[11] = second compound 1 µM, first compound 0.000316 µM
[12] = second compound 1 µM, first compound 0.001 µM
[13] = second compound 1 µM, first compound 0.00316 µM
[14] = second compound 1 µM, first compound 0.01 µM
[15] = second compound 1 µM, first compound 0.0316 µM
[16] = second compound 3.16 µM, first compound 0.000316 µM
[17] = second compound 3.16 µM, first compound 0.001 µM
[18] = second compound 3.16 µM, first compound 0.00316 µM
[19] = second compound 3.16 µM, first compound 0.01 µM
[20] = second compound 3.16 µM, first compound 0.0316 µM
[21] = second compound 10 µM, first compound 0.000316 µM
[22] = second compound 10 µM, first compound 0.001 µM
[23] = second compound 10 µM, first compound 0.00316 µM
[24] = second compound 10 µM, first compound 0.01 µM
[25] = second compound 10 µM, first compound 0.0316 µM
[26] = second compound 0.1 µM, first compound 0.1 µM
[27] = second compound 0.316 µM, first compound 0.1 µM
[28] = second compound 1 µM, first compound 0.1 µM
[29] = second compound 3.16 µM, first compound 0.1 µM
[30] = second compound 10 µM, first compound 0.1 µM

CC(=O)Nc1cccc(-n2c(=O)n(C3CC3)c(=O)c3c(Nc4ccc(I)cc4F)n(C)c(=O)c(C)c32)c1 + CC1OCC2(CCN(c3cnc(Sc4ccnc(N)c4Cl)c(N)n3)CC2)C1N
0.877 nM: IC50 (second compound 0.316 µM)
inactive: viability, T/C (second compound 0.1 µM, first compound 0.0001 µM) 93.8% | viability, T/C [1] 86.2% | viability, T/C [2] 67.9% | viability, T/C [3] 41% | viability, T/C [4] 29.1% | viability, T/C [5] 28.5% | viability, T/C (second compound 0.316 µM, first compound 0.0001 µM) 79.8% | viability, T/C [6] 64.2% | viability, T/C [7] 49.8% | viability, T/C [8] 33.8% | viability, T/C [9] 22.9% | viability, T/C [10] 25.8% | viability, T/C (second compound 1 µM, first compound 0.0001 µM) 55.2% | viability, T/C [11] 42.8% | viability, T/C [12] 33.5% | viability, T/C [13] 21.5% | viability, T/C [14] 20.2% | viability, T/C [15] 21.5% | viability, T/C (second compound 3.16 µM, first compound 0.0001 µM) 25.8% | viability, T/C [16] 16.9% | viability, T/C [17] 14.4% | viability, T/C [18] 17.7% | viability, T/C [19] 15.4% | viability, T/C [20] 15.7% | viability, T/C (second compound 10 µM, first compound 0.0001 µM) 20.2% | viability, T/C [21] 14.3% | viability, T/C [22] 15.3% | viability, T/C [23] 14.2% | viability, T/C [24] 12.4% | viability, T/C [25] 13.7%
< 0.1 nM: IC50 (second compound 3.16 µM) | IC50 (second compound 10 µM)
2.14 nM: IC50 (second compound 0.1 µM)
0.167 nM: IC50 (second compound 1 µM)

CC(C)n1nc(-c2ccc3oc(N)nc3c2)c2c(N)ncnc21 + CC1OCC2(CCN(c3cnc(Sc4ccnc(N)c4Cl)c(N)n3)CC2)C1N
active: viability, T/C [10] 10% | viability, T/C [27] 7.36% | viability, T/C [14] 8.81% | viability, T/C [15] 8.66% | viability, T/C [28] 6.23% | viability, T/C [19] 7.28% | viability, T/C [20] 6.71% | viability, T/C [29] 4.89% | viability, T/C [24] 7% | viability, T/C [25] 5.54% | viability, T/C [30] 4.55%
0.392 nM: IC50 (second compound 1 µM)
1.56 nM: IC50 (second compound 0.1 µM)
0.678 nM: IC50 (second compound 0.316 µM)
inactive: viability, T/C [1] 76.5% | viability, T/C [2] 65.1% | viability, T/C [3] 25.9% | viability, T/C [4] 16.4% | viability, T/C [5] 12.4% | viability, T/C [26] 8.07% | viability, T/C [6] 69.2% | viability, T/C [7] 40.2% | viability, T/C [8] 21.3% | viability, T/C [9] 12% | viability, T/C [11] 54.4% | viability, T/C [12] 30.5% | viability, T/C [13] 11.9% | viability, T/C [16] 26.6% | viability, T/C [17] 22.4% | viability, T/C [18] 10.6% | viability, T/C [21] 22.5% | viability, T/C [22] 18.2% | viability, T/C [23] 10.6%
< 0.316 nM: IC50 (second compound 3.16 µM) | IC50 (second compound 10 µM)

CC1(C)CCC(CN2CCN(c3ccc(C(=O)NS(=O)(=O)c4ccc(NCC5CCOCC5)c([N+](=O)[O-])c4)c(Oc4cnc5[nH]ccc5c4)c3)CC2)=C(c2ccc(Cl)cc2)C1 + CC1OCC2(CCN(c3cnc(Sc4ccnc(N)c4Cl)c(N)n3)CC2)C1N
3280 nM: IC50 (second compound 0.316 µM)
1310 nM: IC50 (second compound 1 µM)
inactive: viability, T/C [5] 76.5% | viability, T/C [26] 73% | viability, T/C (second compound 0.1 µM, first compound 0.316 µM) 70% | viability, T/C (second compound 0.1 µM, first compound 1 µM) 72% | viability, T/C (second compound 0.1 µM, first compound 3.16 µM) 54.3% | viability, T/C (second compound 0.1 µM, first compound 10 µM) 17.2% | viability, T/C [10] 72.3% | viability, T/C [27] 62.2% | viability, T/C (second compound 0.316 µM, first compound 0.316 µM) 68.3% | viability, T/C (second compound 0.316 µM, first compound 1 µM) 67.6% | viability, T/C (second compound 0.316 µM, first compound 3.16 µM) 51.1% | viability, T/C (second compound 0.316 µM, first compound 10 µM) 12.6% | viability, T/C [15] 62.3% | viability, T/C [28] 54.4% | viability, T/C (second compound 1 µM, first compound 0.316 µM) 52% | viability, T/C (second compound 1 µM, first compound 1 µM) 50.1% | viability, T/C (second compound 1 µM, first compound 3.16 µM) 44.6% | viability, T/C (second compound 1 µM, first compound 10 µM) 10.6% | viability, T/C [20] 47.9% | viability, T/C [29] 45% | viability, T/C (second compound 3.16 µM, first compound 0.316 µM) 36.6% | viability, T/C (second compound 3.16 µM, first compound 1 µM) 26.7% | viability, T/C (second compound 3.16 µM, first compound 3.16 µM) 18.1% | viability, T/C (second compound 3.16 µM, first compound 10 µM) 10.7% | viability, T/C [25] 37.5% | viability, T/C [30] 32.9% | viability, T/C (second compound 10 µM, first compound 0.316 µM) 32% | viability, T/C (second compound 10 µM, first compound 1 µM) 26.6% | viability, T/C (second compound 10 µM, first compound 3.16 µM) 26.5% | viability, T/C (second compound 10 µM, first compound 10 µM) 6.62%
3720 nM: IC50 (second compound 0.1 µM)
< 31.6 nM: IC50 (second compound 3.16 µM) | IC50 (second compound 10 µM)
